A word on the Ki: it is the dissociation constant of the complex between target and ligand, obtained from inhibition or displacement.

Molecules are shown by their SMILES.

Data set [1] concerns the target T1, Glutamate carboxypeptidase 2 (Homo sapiens, UniProt Q04609). Put plainly: Binding affinity to human recombinant PSMA (unknown origin) assessed as inhibition constant incubated for 60 mins in presence of NAAG.
A short description of data set [2]: Drug uptake in 22Rv1 tumor bearing mouse assessed as fluorescence in muscle measured at 0.85 mg/kg, iv after 24 hrs by NIR-II imaging analysis. Format: ADME, organism-based, Muscle tissue. Particulars: in vivo; call rule not given here.
Data set [3] can be described thus: Drug uptake in 22Rv1 tumor bearing mouse assessed as fluorescence in lung measured at 0.85 mg/kg, iv after 24 hrs by NIR-II imaging analysis. The data set is classed as ADME, organism-based. Particulars: in vivo.
Data set [4] is described as follows: Drug uptake in 22Rv1 tumor bearing mouse assessed as fluorescence in spleen measured at 0.85 mg/kg, iv after 24 hrs by NIR-II imaging analysis. The data set is classed as ADME, organism-based. Particulars: in vivo.
Data set [5] can be described thus: Drug uptake in 22Rv1 tumor bearing mouse assessed as fluorescence in brain measured at 0.85 mg/kg, iv after 24 hrs by NIR-II imaging analysis. The data set is classed as ADME, organism-based. Particulars: in vivo.
Data set [6] in a line: Drug uptake in 22Rv1 tumor bearing mouse assessed as fluorescence in liver measured at 0.85 mg/kg, iv after 24 hrs by NIR-II imaging analysis. The data set is classed as ADME, organism-based. Particulars: in vivo.
Data set [7] can be described thus: Drug uptake in 22Rv1 tumor bearing mouse assessed as fluorescence in kidney measured at 0.85 mg/kg, iv after 24 hrs by NIR-II imaging analysis. The data set is classed as ADME, organism-based. Particulars: in vivo.
A short description of data set [8]: Drug uptake in 22Rv1 tumor bearing mouse assessed as fluorescence in tumor measured at 0.85 mg/kg, iv after 24 hrs by NIR-II imaging analysis. Format: ADME, organism-based, Neoplasm. Particulars: in vivo.
The nature of data set [9]: Drug uptake in 22Rv1 tumor bearing mouse assessed as fluorescence in heart measured at 0.85 mg/kg, iv after 24 hrs by NIR-II imaging analysis. Format: ADME, organism-based. The settings on record: in vivo.
Data set [10] in a line: Drug uptake in 22Rv1 tumor bearing mouse assessed as tumor to normal tissue ratio measured at 0.85 mg/kg, iv after 24 hrs by NIR-II imaging analysis. The data set is classed as ADME, organism-based. Particulars: in vivo.
Data set [11] can be described thus: Drug uptake in 22Rv1 tumor bearing mouse measured at 0.85 mg/kg, iv after 24 hrs in presence of (2S)-2-[[(1S)-1-Carboxy-5-[(4-iodobenzoyl)amino]pentyl]carbamoylamino]pentanedioic acid by NIR-II imaging analysis. Format: ADME, organism-based, Neoplasm. The settings on record: in vivo.
Data set [12] can be described thus: Drug uptake in 22Rv1 tumor bearing mouse assessed as fluorescence in stomach measured at 0.85 mg/kg, iv after 24 hrs by NIR-II imaging analysis. Format: ADME, organism-based. Particulars: in vivo.
Data set [13] is described as follows: Drug uptake in 22Rv1 tumor bearing mouse assessed as fluorescence in intestine measured at 0.85 mg/kg, iv after 24 hrs by NIR-II imaging analysis. The data set is classed as ADME, organism-based. The settings on record: in vivo.
A short description of data set [14]: Drug uptake in 22Rv1 tumor bearing mouse assessed as fluorescence in pancreas measured at 0.85 mg/kg, iv after 24 hrs by NIR-II imaging analysis. The settings on record: in vivo. The data set is classed as ADME, organism-based.
Data set [15] is described as follows: Drug uptake in 22Rv1 tumor bearing mouse assessed as tumor to liver ratio measured at 0.85 mg/kg, iv after 24 hrs by NIR-II imaging analysis. The data set is classed as ADME, organism-based. Particulars: in vivo.
Data set [16] has as its target T1, Glutamate carboxypeptidase 2. Put plainly: Binding affinity to PSMA (unknown origin) assessed as inhibition constant.

T1 sequence (Q04609 whole entry): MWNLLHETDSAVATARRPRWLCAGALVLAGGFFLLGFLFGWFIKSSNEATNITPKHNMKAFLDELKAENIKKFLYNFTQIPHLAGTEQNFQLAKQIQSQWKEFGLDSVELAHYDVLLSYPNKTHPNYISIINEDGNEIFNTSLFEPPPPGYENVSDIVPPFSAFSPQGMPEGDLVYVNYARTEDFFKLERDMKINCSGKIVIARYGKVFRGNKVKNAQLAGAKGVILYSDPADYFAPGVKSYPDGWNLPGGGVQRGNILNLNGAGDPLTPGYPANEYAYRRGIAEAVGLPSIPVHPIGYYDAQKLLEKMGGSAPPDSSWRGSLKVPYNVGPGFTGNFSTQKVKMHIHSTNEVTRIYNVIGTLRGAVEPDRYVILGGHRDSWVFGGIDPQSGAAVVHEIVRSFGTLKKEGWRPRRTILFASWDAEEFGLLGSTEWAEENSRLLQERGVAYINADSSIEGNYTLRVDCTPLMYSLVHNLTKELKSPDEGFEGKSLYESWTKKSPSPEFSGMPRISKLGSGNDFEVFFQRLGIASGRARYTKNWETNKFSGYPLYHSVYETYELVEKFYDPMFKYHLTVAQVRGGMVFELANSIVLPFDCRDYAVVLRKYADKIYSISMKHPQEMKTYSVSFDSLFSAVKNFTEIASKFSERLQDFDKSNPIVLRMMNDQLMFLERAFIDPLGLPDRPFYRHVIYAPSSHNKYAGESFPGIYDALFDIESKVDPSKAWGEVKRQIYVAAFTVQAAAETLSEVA

Regarding `O=C(N[C@@H](CCCCNC(=O)c1ccc(F)cc1)C(=O)O)N[C@@H](CNc1c(O)c(=O)c1=O)C(=O)O`, the inhibition constant Ki in data set [1] came out at 0.9 nM.
In the case of `O=C(N[C@@H](CCCCNC(=O)c1cc(F)cc(C(=O)NCCCC[C@H](NC(=O)N[C@@H](CNc2c(O)c(=O)c2=O)C(=O)O)C(=O)O)c1)C(=O)O)N[C@@H](CNc1c(O)c(=O)c1=O)C(=O)O`, the Ki in data set [1] was determined as 0.41 nM.
Same read-out and setting: then `O=C(O)CC(=O)NC[C@H](NC(=O)N[C@@H](CCCCNC(=O)c1cc(I)cc(C(=O)NCCCC[C@H](NC(=O)N[C@@H](CNC(=O)CC(=O)O)C(=O)O)C(=O)O)c1)C(=O)O)C(=O)O`, with 33.8 nM; and `O=C(N[C@@H](CCCCNC(=O)c1cc(I)cc(C(=O)NCCCC[C@H](NC(=O)N[C@@H](CNc2c(O)c(=O)c2=O)C(=O)O)C(=O)O)c1)C(=O)O)N[C@@H](CNc1c(O)c(=O)c1=O)C(=O)O`, with 0.4 nM; and `O=C(O)CC[C@H](Nc1c(N[C@@H](CCCCNC(=O)c2cc(I)cc(C(=O)NCCCC[C@H](Nc3c(N[C@@H](CCC(=O)O)C(=O)O)c(=O)c3=O)C(=O)O)c2)C(=O)O)c(=O)c1=O)C(=O)O`, with 107 nM.
Same read-out and setting: then `O=C(NC(CCCCNC(=O)c1ccc(I)cc1)C(=O)O)N[C@@H](CNc1c(O)c(=O)c1=O)C(=O)O` (stereo not given in full), with 1.35 nM.
Regarding `CN(CCC(=O)NCCCC[C@H](NC(=O)N[C@@H](CNc1c(O)c(=O)c1=O)C(=O)O)C(=O)O)c1ccc(-c2c3c(c(-c4ccc(N(C)CCC(=O)NCCC[C@H](NC(=O)N[C@@H](CNc5c(O)c(=O)c5=O)C(=O)O)C(=O)O)cc4)c4nsnc24)N=S=N3)cc1`, the Drug uptake entry in [2] is given as “Not Active”; in data set [3], “Not Active”; in [4] it was “Not Active”; in data set [5], “Not Active”; in data set [6] it was “Active”; in [7] it was “Active”. The Drug uptake result in data set [8] is “Active”; in data set [9], “Not Active”; in data set [11], “Not Active”; in [12] it was “Not Active”; in data set [13], “Not Active”; in data set [14] it was “Not Active”. In addition, the Ki in data set [1] came to 1.07 nM. For the same compound, the Ratio in [10] is 4.79; in [15], 5.39.
On to `CC1(C)C(/C=C2/C(=O)C(/C=C3\N(CCCCCC(=O)NCCCC[C@H](NC(=O)N[C@@H](CCC(=O)O)C(=O)O)C(=O)O)c4ccccc4C3(C)C)=C2[O-])=[N+](CCCCCC(=O)NCCCC[C@H](NC(=O)N[C@@H](CCC(=O)O)C(=O)O)C(=O)O)c2ccccc21`, for which the Ki in data set [16] is 0.74 nM.
For the compound `O=C(O)CC[C@H](NC(=O)N[C@@H](CCCNC(=O)c1ccc(F)cc1)C(=O)O)C(=O)O`, the inhibitory constant (Ki) in data set [1] amounted to 0.86 nM.
Turning to `O=C(O)CC(=O)NC[C@H](NC(=O)N[C@@H](CCCCNC(=O)c1ccc(I)cc1)C(=O)O)C(=O)O`, the inhibition constant (Ki) in data set [1] amounted to 221 nM.
For `CN(CCC(=O)NCCCC[C@H](NC(=O)N[C@@H](CCC(=O)O)C(=O)O)C(=O)O)c1ccc(-c2c3c(c(-c4ccc(N(C)CCC(=O)NCCCC[C@H](NC(=O)N[C@@H](CCC(=O)O)C(=O)O)C(=O)O)cc4)c4nsnc24)N=S=N3)cc1`, the Ratio in data set [10] is given as 6.66.

(Values after ChEMBL document CHEMBL5338776, “Design and Characterization of Squaramic Acid-Based Prostate-Specific Membrane Antigen Inhibitors for Prostate Cancer” (J Med Chem, 2023).)
